Measurements taken from US7960397B2, “6,9-disubstituted purine derivatives and their use as cosmetics and cosmetic compositions” (Institute of Experimental Botany, Academy of Sciences of …, priority 2007, dated 2011).

Legend:
[1] = tested on: cytokinin-dependent tobacco callus Nicotiana tabacum L. cv. Wisconsin 38; test: Cytokinin activity in tobacco callus bioassay; assay type: cell-based; conditions: for concentration with highest activity: growth of tobacco callus, four weeks of cultivation, tested 10^−8 M to 10^−4 M; for Activity (%) [10^−5 mol · l^−1 BAP = 100%]: increase of fresh callus weight at the concentration with highest activity, 10^−5 M BAP = 100%
Protocol: Estimation of cytokinin biological activity of novel compounds in callus bioassay. Cytokinin-dependent tobacco callus Nicotiana tabacum L. cv. […] Subcultivation was carried out every three weeks. Fourteen days before the bioassay, the callus tissue was transferred to the media without the compound tested. The biological activity was determined from the increase of the fresh callus weight after four weeks of cultivation. Five replicates were prepared for each concentration of the compound tested and the entire test was repeated twice. […] The relative activity of the compound at this concentration was calculated (Table 8). […] The compounds to be tested were dissolved in dimethylsulfoxide (DMSO) and the solution brought up to 10^−3 M with distilled water. This stock solution was further diluted with the respective media used for the biotest to a concentration ranging from 10^−8 M to 10^−4 M.

[2] = tested on: Amaranthus caudatus cotyledon/hypocotyl explants; test: Amaranthus bioassay (betacyanin content); set-up: species or system Amaranthus caudatus var. atropurpurea; conditions: for concentration with highest activity: betacyanin content after 48 h incubation, tested 10^−8 M to 10^−4 M; for Activity (%) [10^−5 mol · l^−1 BAP = 100%]: betacyanin content at the concentration with highest activity, 10^−5 M BAP = 100%
Protocol: Testing of novel compounds for typical cytokinin activity in Amaranthus bioassay. A standard Amaranthus bioassay was performed with several modifications. The seeds of Amaranthus caudatus var. atropurpurea were surface-sterilized in 10% (w/v) N-chlorobenzenesulfonamide for 10 min and washed 5 times with deionized water. They were placed in 14 cm Petri dishes containing paper tissues saturated with deionized water. After 72 h of cultivation at 25° C. in darkness, the roots of the seedlings were cut off. The explants, consisting of two cotyledons and hypocotyls, were placed in 5 cm Petri dishes onto two layers of filter paper soaked with 1 ml of the incubation medium containing 10 mmol of NA2HPO4—KH2PO4, pH 6.8, 5 mmol of tyrosine and the compound to be tested. There were 20 explants per dish. The procedure was carried out under a green safe light in a darkroom. […] The concentration of betacyanin was determined from the absorbencies at 537 nm and 620 nm as follows: DA=A537 nm−A620 nm. […] Relative activity of the compound at this concentration was calculated. The activity obtained for 10^−5 M 6-benzylaminopurine (BAP) was defined as 100%.
(§1) The compounds to be tested were dissolved in dimethylsulfoxide (DMSO) and the solution brought up to 10^−3 M with distilled water.

excised wheat leaf tips = test: Antisenescence test, retention of chlorophyll in excised wheat leaf tips; set-up: species or system Triticum aestivum cv. Hereward; conditions: for activity (%) [10^−4 mol · l^−1 BAP = 100%]: retention of chlorophyll in excised wheat leaf tips at the concentration with highest activity, 10 replicate determinations; for concentration with highest activity: retention of chlorophyll in excised wheat leaf tips, tested range 10^−8 M to 10^−4 M, 96 h in the dark at 25° C.
Protocol: Testing of antisenescence properties of novel cytokinin compounds on wheat leaf segments. Seeds of winter wheat, Triticum aestivum cv. Hereward, were washed under running water for 24 hours and then sown on vermiculite soaked with the Knop's solution. They were placed in the grow chamber at 25° C. with a 16 h-8 h light period at 50 mmol.m^−2.s^−1. After 7 days, the first leaf was fully developed and the second leaf had started to grow. A 35 mm long tip section of the first leaf, was removed from each of 5 seedlings and trimmed slightly to a combined weight of 100 mg. The basal ends of the five leaf tips were placed in the wells of a microtiter polystyrene plate containing […] of the solution of the tested compound each. The entire plate was inserted into a plastic box lined with paper tissues soaked with distilled water to prevent leaf sections from drying out. After 96 h incubation in the dark at 25° C., the leaves were removed and chlorophyll was extracted by heating at 80° C. for 10 min in 5 ml of 80% ethanol (v/v). The sample volume was then restored to 5 ml by the addition of 80% ethanol (v/v). The absorbance of the extract was recorded at 665 nm. In addition, chlorophyll extracts from fresh leaves and leaf tips incubated in deionized water were measured. […] Relative activity of the compound at this concentration was calculated (Table 7). The activity obtained for 10^−4 M 6-benzylaminopurine (BAP) was defined as 100%. The values shown are means of five replicates and the whole experiment was repeated twice.
as §1

[3] = tested on: human diploid fibroblasts (HCA cells, HCA20, HCA40, HCA60); test: Senescent cells (β-galactosidase staining) in culture of human fibroblasts; assay type: cell-based; conditions: for SENESCENT CELLS (%) HCA20: human fibroblasts passage 20 (HCA20); for SENESCENT CELLS (%) HCA40: human fibroblasts passage 40 (HCA40); for SENESCENT CELLS (%) HCA60: human fibroblasts passage 60 (HCA60)
Protocol: In this example, human diploid fibroblasts (HCA cells of various passage levels: passage 20—designated HCA20; passage 40—designated HCA40; passage 60—designated HCA60) were stained for β-galactosidase activity. The medium used for the cell cultivation was removed, the cells were washed twice in […], and fixed in 2-3 ml of fixing solution comprised of a 2% formaldehyde and 0.2% glutaraldehyde in PBS. The cells were incubated at room temperature for 5 minutes, and then washed twice with PBS. The cells were subsequently incubated at 37° C.

| Compound | concentration with highest activity [1] | Activity (%) [10^−5 mol · l^−1 BAP = 100%] [1] | concentration with highest activity [2] | Activity (%) [10^−5 mol · l^−1 BAP = 100%] [2] | activity (%) [10^−4 mol · l^−1 BAP = 100%] (excised wheat leaf tips) | concentration with highest activity (excised wheat leaf tips) | SENESCENT CELLS (%) HCA20 [3] | SENESCENT CELLS (%) HCA40 [3] | SENESCENT CELLS (%) HCA60 [3] |
| --- | --- | --- | --- | --- | --- | --- | --- | --- | --- |
| CC(CO)CCNc1ncnc2c1ncn2C1CCCCO1 (stereo not drawn) [6-(4-hydroxy-3-methylbutylamino)-9-(tetrahydropyran-2-yl)purine] | 10^−5 mol · l^−1 | 112% | 10^−4 mol · l^−1 | 83% | 95% | 10^−4 mol · l^−1 | 5% | 2% | 25% |
| Oc1ccoc1CNc1ncnc2c1ncn2C1CCCCO1 (stereo not drawn) | 10^−6 mol · l^−1 | 52% | 10^−4 mol · l^−1 | 65% | 45% | 10^−4 mol · l^−1 | 4% | 4% | 18% |
| Oc1cccc(CNc2ncnc3c2ncn3C2CCCO2)c1 (stereo not drawn) [6-(3-hydroxybenzylamino)-9-(tetrahydrofuran-2-yl)-purine] | 10^−5 mol · l^−1 | 125% | 10^−4 mol · l^−1 | 107% | 113% | 10^−4 mol · l^−1 | 5% | 3% | 25% |
| COc1cccc(CNc2ncnc3c2ncn3C2CCCCO2)c1O (stereo not drawn) | 10^−6 mol · l^−1 | 11% | 10^−4 mol · l^−1 | 32% | 50% | 10^−4 mol · l^−1 | 3% | 3% | 25% |
| CC(CO)CCNc1ncnc2c1ncn2C1CCCO1 (stereo not drawn) | 10^−5 mol · l^−1 | 105% | 10^−4 mol · l^−1 | 80% | 91% | 10^−4 mol · l^−1 | 5% | 2% | 25% |
| Cc1cccc(CNc2ncnc3c2ncn3C2CCCCO2)c1O (stereo not drawn) | 10^−5 mol · l^−1 | 9.2% | 10^−4 mol · l^−1 | 68.8% | 16.4% | 10^−4 mol · l^−1 | 4% | 6% | 30% |
| COc1ccc(CNc2ncnc3c2ncn3C2CCCCO2)c(O)c1 (stereo not drawn) | 10^−6 mol · l^−1 | 43% | 10^−4 mol · l^−1 | 37% | 35% | 10^−4 mol · l^−1 | 3% | 4% | 27% |
